{"source": "patent US8058243B2", "about": "“Method for treating a brain cancer with ifenprodil” (HSC Research and Development Limited Partnership, priority 2006, dated 2011)", "tested_on": "murine neural precursor cells (neurosphere cultures)", "assay": "HTS of LOPAC library against secondary neurosphere cultures, MTT proliferation assay at 3 μM, day 7 (z score, P value)", "assay_type": "cell-based, mouse", "key": {"[1]": {"settings": "LOPAC screen, neurosphere MTT proliferation, 3 μM, day 7"}, "[2]": {"settings": "yes/no: significantly inhibited neurosphere proliferation (P<0.01) in primary screen"}, "[3]": {"settings": "LOPAC primary screen, neurosphere MTT proliferation, 3 μM, day 7"}, "[4]": {"settings": "yes/no: significantly inhibited neurosphere proliferation (P<0.01) in the primary screen"}, "[5]": {"settings": "yes/no: significantly inhibited neurosphere proliferation in primary screen"}, "[6]": {"settings": "LOPAC library screen at 3 μM, secondary neurosphere cultures, MTT"}, "[7]": {"settings": "LOPAC library screen, 3 μM, MTT, neurosphere cultures"}, "[8]": {"settings": "primary LOPAC screen, 3 μM, MTT, neurosphere proliferation"}, "[9]": {"settings": "yes/no: significantly inhibited neurosphere proliferation in the primary screen"}}, "note": "Structures can show the parent of a compound that is named as a salt. Where two headings read alike, the source gives them in different places.", "data": [{"molecule": "CCCC(C)(COC(N)=O)COC(=O)NC(C)C", "note": "(centres unmarked) [Carisoprodol]", "values": [{"measurement": "Z Score", "value": "−1.795"}, {"measurement": "Z score", "setting": "[1]", "value": "−1.795"}, {"measurement": "Activity", "setting": "[2]", "value": "no"}]}, {"molecule": "C=CCN1CC[C@]23c4c5ccc(O)c4O[C@H]2/C(=N/NC(=O)c2ccccc2)CC[C@@]3(O)[C@H]1C5", "note": "[Naloxone benzoylhydrazone]", "values": [{"measurement": "Z Score", "value": 1.915}, {"measurement": "Z score", "setting": "[3]", "value": 1.915}, {"measurement": "Activity", "setting": "[4]", "value": "no"}]}, {"molecule": "c1ccc2c(c1)OCC(C1=NCCN1)O2", "note": "(centres unmarked) [Idazoxan hydrochloride]", "values": [{"measurement": "Z Score", "setting": "LOPAC library screen, 3 μM, MTT, secondary neurosphere cultures, day 7", "value": "−1.448"}, {"measurement": "Z score", "setting": "[3]", "value": "−1.448"}, {"measurement": "Activity", "setting": "[2]", "value": "no"}]}, {"molecule": "Cl.Oc1cc2c(cc1O)C(c1ccccc1)CNCC2", "note": "(centres unmarked) [(B1)-SKF-38393 hydrochloride]", "values": [{"measurement": "Z Score", "value": 1.28}]}, {"molecule": "CC(C)NCC(O)c1ccc(NS(C)(=O)=O)cc1.Cl", "note": "(centres unmarked) [(B1)-Sotalol hydrochloride]", "values": [{"measurement": "Z Score", "value": "−0.813"}]}, {"molecule": "(−)-Quinpirole hydrochloride", "values": [{"measurement": "Z Score", "value": "−1.565"}, {"measurement": "Z score", "value": "−1.565"}]}, {"molecule": "N[C@@H](CCCC(=O)O)C(=O)O", "note": "[L-2-aminoadipic acid]", "values": [{"measurement": "Z Score", "setting": "168 h, 3 µM", "value": "−2.334"}, {"measurement": "Z score", "setting": "168 h, 3 µM", "value": "−2.334"}, {"measurement": "Activity", "setting": "[4]", "value": "yes"}]}, {"molecule": "(−)-Scopolamine methyl nitrate", "values": [{"measurement": "Activity", "setting": "[5]", "value": "no"}]}, {"molecule": "S(−)-Timolol maleate", "values": [{"measurement": "Z Score", "setting": "[6]", "value": "−0.7675"}, {"measurement": "Z score", "setting": "[3]", "value": "−0.767"}, {"measurement": "Activity", "setting": "[5]", "value": "no"}]}, {"molecule": "N=C(N)SCCc1cnc[nH]1", "note": "[Imetit dihydrobromide]", "values": [{"measurement": "Z Score", "value": "−0.2452"}, {"measurement": "Z score", "value": "−0.245"}]}, {"molecule": "C=CCN1C[C@H](C)N([C@H](c2ccc(C(=O)N(CC)CC)cc2)c2cccc(OC)c2)C[C@H]1C", "note": "[SNC80]", "values": [{"measurement": "Z Score", "value": "−0.4575"}, {"measurement": "Z score", "setting": "[3]", "value": "−0.457"}, {"measurement": "Activity", "setting": "[5]", "value": "no"}]}, {"molecule": "COC(=O)c1c(C)[nH]c(C)c1C(=O)c1ccccc1Cc1ccccc1", "note": "[FPL 64176]", "values": [{"measurement": "Z Score", "value": "−1.099"}, {"measurement": "Z score", "setting": "[3]", "value": "−1.099"}, {"measurement": "Activity", "setting": "[2]", "value": "no"}]}, {"molecule": "NC(CCCP(=O)(O)O)C(=O)O", "note": "(centres unmarked) [(B1)-2-Amino-5-phosphonopentanoic acid]", "values": [{"measurement": "Z Score", "value": "−1.045"}]}, {"molecule": "O=c1[nH]c2cc(C(F)(F)F)ccc2n1-c1cc(C(F)(F)F)ccc1O", "note": "[NS-1619]", "values": [{"measurement": "Z Score", "value": "−0.4878"}, {"measurement": "Z score", "setting": "[3]", "value": "−0.488"}, {"measurement": "Activity", "setting": "[5]", "value": "no"}]}, {"molecule": "CN1CCN(CCCN2c3ccccc3Sc3ccc(Cl)cc32)CC1", "note": "[Prochlorperazine dimaleate]", "values": [{"measurement": "Z Score", "setting": "168 h, 3 µM", "value": "−0.8602"}, {"measurement": "Z score", "setting": "168 h, 3 µM", "value": "−0.860"}, {"measurement": "Activity", "setting": "[4]", "value": "no"}]}, {"molecule": "CC(/C=C/c1cccc(Oc2ccc(F)cc2)c1)N(O)C(N)=O", "note": "(centres unmarked) [BWB70C]", "values": [{"measurement": "Z Score", "value": "−0.8932"}, {"measurement": "Z score", "setting": "[1]", "value": "−0.893"}, {"measurement": "Activity", "setting": "[2]", "value": "no"}]}, {"molecule": "CN1[C@@H](CC(=O)c2ccccc2)CCC[C@H]1C[C@H](O)c1ccccc1", "note": "[alpha-Lobeline hydrochloride]", "values": [{"measurement": "Z Score", "setting": "[7]", "value": 0.5499}, {"measurement": "Z score", "setting": "[3]", "value": 0.550}, {"measurement": "Activity", "setting": "[2]", "value": "no"}]}, {"molecule": "Nc1ccc(N2C(=O)c3ccccc3C2=O)c(Cl)c1", "note": "[N-(4-Amino-2-chlorophenyl)phthalimide]", "values": [{"measurement": "Z Score", "setting": "[6]", "value": "−0.6021"}, {"measurement": "Z score", "setting": "[8]", "value": "−0.602"}, {"measurement": "Activity", "setting": "[9]", "value": "no"}]}, {"molecule": "CC(C)=CCCC(C)=CCCC(C)=CCSc1ccccc1C(=O)O", "note": "[Farnesylthiosalicylic acid]", "values": [{"measurement": "Z Score", "setting": "[7]", "value": 0.9061}, {"measurement": "Z score", "setting": "[3]", "value": 0.906}, {"measurement": "Activity", "setting": "[2]", "value": "no"}]}, {"molecule": "O=S(=O)(O)C1CCNCC1", "note": "[Piperidine-4-sulphonic acid]", "values": [{"measurement": "Z Score", "setting": "168 h, 3 µM", "value": "−0.4238"}, {"measurement": "Z score", "setting": "168 h, 3 µM", "value": "−0.424"}, {"measurement": "Activity", "setting": "[5]", "value": "no"}]}, {"molecule": "CCCCC#Cc1nc(N)c2ncn([C@@H]3O[C@H](C(=O)NCC)[C@@H](O)[C@H]3O)c2n1", "note": "[HE-NECA]", "values": [{"measurement": "Z Score", "value": "−2.504"}, {"measurement": "Z score", "setting": "[3]", "value": "−2.504"}, {"measurement": "Activity", "setting": "[4]", "value": "yes"}]}, {"molecule": "O=C(O)CCC/C=C\\C[C@@H]1[C@@H](/C=C/[C@H](O)C2Cc3ccccc3C2)[C@@H](F)C[C@@H]1O", "note": "[AL-8810]", "values": [{"measurement": "Z Score", "value": "−1.806"}, {"measurement": "Z score", "setting": "[8]", "value": "−1.806"}, {"measurement": "Activity", "setting": "[9]", "value": "no"}]}, {"molecule": "Cl.Cl.NCCCCN", "note": "[Putrescine dihydrochloride]", "values": [{"measurement": "Activity", "value": "no"}, {"measurement": "Z Score", "value": "−0.7689"}, {"measurement": "Z score", "value": "−0.769"}]}, {"molecule": "N.N.N.Nc1ncnc2c1ncn2C1OC(COP(=O)(O)OP(=O)(O)OP(=O)(O)OP(=O)(O)OC[C@H]2O[C@@H](n3cnc4c(N)ncnc43)C(O)C2O)[C@@H](O)C1O", "note": "(stereo in doubt)", "values": [{"measurement": "Z Score", "setting": "[6]", "value": "−0.2867"}, {"measurement": "Z score", "setting": "[1]", "value": "−0.287"}, {"measurement": "Activity", "setting": "[2]", "value": "no"}]}]}
